Test [1] relates to Vas deferens. Kind of test: Intrinsic activity of (-)-norepinephrine-induced tissue contraction in albino Sprague-Dawley rat reserpine-treated adrenergically innervated vas deferens after 15 mins by isotonic myograph analysis. It is filed as functional, tissue-based.
The species named for test [2] is Rattus norvegicus. Kind of test: Potentiation of (-)-norepinephrine-induced tissue contraction in albino Sprague-Dawley rat reserpine-treated adrenergically innervated vas deferens after 15 mins by isotonic myograph analysis. It is filed as functional, tissue-based.
Test [3] is described as follows: Potentiation of (-)-norepinephrine-induced tissue contraction in albino Sprague-Dawley rat reserpine-treated adrenergically innervated vas deferens at 3 x 10^-4 M after 15 mins by isotonic myograph analysis. The format is functional.
The species named for test [4] is Rattus norvegicus. Kind of test: Potentiation of (-)-norepinephrine-induced tissue contraction in albino Sprague-Dawley rat reserpine-treated adrenergically innervated vas deferens at 3 x 10^-5 to 3 x 10^-4 M after 15 mins by isotonic myograph analysis. It is filed as functional, tissue-based.
Test [5] deals with Vas deferens. Kind of test: Intrinsic activity of (-)-norepinephrine-induced tissue contraction in albino Sprague-Dawley rat reserpine-treated adrenergically innervated vas deferens at 1 x 10^-5 to 3 x 10^-5 M after 15 mins by isotonic myograph analysis. The format is functional, tissue-based.
The test system of test [6] is Vas deferens. Kind of test: Intrinsic activity of (-)-norepinephrine-induced tissue contraction in albino Sprague-Dawley rat reserpine-treated adrenergically innervated vas deferens at 3 x 10^-6 M after 15 mins by isotonic myograph analysis. It is filed as functional.
The nature of test [7]: Potentiation of (-)-norepinephrine-induced tissue contraction in albino Sprague-Dawley rat reserpine-treated adrenergically innervated vas deferens at 3 x 10^-6 M after 15 mins by isotonic myograph analysis. It is filed as functional.
Test [8] in a line: Induction of tissue contraction in albino Sprague-Dawley rat reserpine-treated adrenergically innervated vas deferens at 3 x 10^-7 M by isotonic myograph analysis. It is filed as functional.

Active and inactive are the calls of the source. The rule behind the calls is not given here.

On to `N[C@@H]1CC[C@@]1(O)c1ccccc1`, for which the outcome in the test with Vas deferens [1] was inactive. Besides, the Activity result in the test listed under Rattus norvegicus [2] was “Dose-dependent effect”; in test [3], 55%.
In the case of `N[C@@H]1CC[C@]1(O)c1ccccc1`, the outcome in the test on Vas deferens [1] and in the test listed under Rattus norvegicus [4] was inactive.
Consider `CC(N)C(O)c1ccccc1` (centres undefined) [PHENYLPROPANOLAMINE], for which the outcome with Vas deferens [5] was Active. Moreover, the figures for the Activity (with Vas deferens [6]; in test [7]) were below 5% and 66%, respectively.
`NCC(O)c1ccc(O)c(O)c1` (centres undefined) had an Activity in test [8] of 10%.

These data come from ChEMBL document CHEMBL3272088, “Stereochemical studies of adrenergic drugs. Diastereomeric 2-amino-1-phenylcyclobutanols” (1976).
